Columns and labels:
ALK (L1196M) = molecular target: T1, ALK (L1196M) (Homo sapiens, UniProt Q9UM73, L1196M); test: scanMAX Kinase panel (DiscoverX), % control; type: binding; conditions: <35% = active
T1 construct: purchased DiscoverX
Method: (§1) Specifically, for Examples 162, 160, 105, 217, 205, 96, 207, 184, 206, 221, 238, and 237 selected among the example compounds of the present invention, it was decided to measure enzyme (kinase) selectivity by DiscoverX, and the experiment was conducted using a panel for scanMAX™ Kinase analysis. At this time, the concentration of the drug treated with the enzyme was 1 uM in DMSO, the control percentage (% control) was determined in the same way as in Equation 1 below, and the results were shown in Table 6 below. [formula] Here, the positive control refers to a compound showing a control percentage of 0%, and the negative control is DMSO, indicating a control percentage of 100%. Also, in the enzyme selectivity of the present invention, if the control percentage for each enzyme was <35% (i.e., less than 35%), it was determined to have activity against the relevant enzyme.

CLK2 = molecular target: T2, CLK2 (Homo sapiens, UniProt P49760); test: scanMAX Kinase panel (DiscoverX), % control; type: binding; conditions: <35% = active
T2 construct: purchased DiscoverX
Method: as §1

DYRK2 = molecular target: T3, DYRK2 (Homo sapiens, UniProt Q92630); test: scanMAX Kinase panel (DiscoverX), % control; type: binding; conditions: <35% = active
T3 construct: purchased DiscoverX
T3 sequence (Q92630 1-601): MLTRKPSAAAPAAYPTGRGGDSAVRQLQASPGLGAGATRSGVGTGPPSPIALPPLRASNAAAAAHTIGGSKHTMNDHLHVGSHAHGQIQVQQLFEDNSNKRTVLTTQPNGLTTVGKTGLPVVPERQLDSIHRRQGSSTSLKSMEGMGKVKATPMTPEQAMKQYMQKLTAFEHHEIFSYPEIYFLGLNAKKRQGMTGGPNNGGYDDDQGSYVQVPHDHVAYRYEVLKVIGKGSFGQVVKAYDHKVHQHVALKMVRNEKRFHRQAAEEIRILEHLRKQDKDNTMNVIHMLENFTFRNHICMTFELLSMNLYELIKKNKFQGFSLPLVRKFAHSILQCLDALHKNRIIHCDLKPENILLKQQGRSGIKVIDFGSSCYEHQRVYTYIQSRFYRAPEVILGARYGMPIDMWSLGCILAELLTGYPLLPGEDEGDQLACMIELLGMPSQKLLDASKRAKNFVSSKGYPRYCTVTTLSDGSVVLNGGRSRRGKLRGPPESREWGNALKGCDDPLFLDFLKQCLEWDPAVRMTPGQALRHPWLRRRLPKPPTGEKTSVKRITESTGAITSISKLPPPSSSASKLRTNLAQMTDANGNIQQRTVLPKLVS
Method: as §1

GAK = molecular target: T4, GAK (Homo sapiens, UniProt O14976); test: scanMAX Kinase panel (DiscoverX), % control; type: binding; conditions: <35% = active
T4 construct: purchased DiscoverX
T4 sequence (O14976 1-1311): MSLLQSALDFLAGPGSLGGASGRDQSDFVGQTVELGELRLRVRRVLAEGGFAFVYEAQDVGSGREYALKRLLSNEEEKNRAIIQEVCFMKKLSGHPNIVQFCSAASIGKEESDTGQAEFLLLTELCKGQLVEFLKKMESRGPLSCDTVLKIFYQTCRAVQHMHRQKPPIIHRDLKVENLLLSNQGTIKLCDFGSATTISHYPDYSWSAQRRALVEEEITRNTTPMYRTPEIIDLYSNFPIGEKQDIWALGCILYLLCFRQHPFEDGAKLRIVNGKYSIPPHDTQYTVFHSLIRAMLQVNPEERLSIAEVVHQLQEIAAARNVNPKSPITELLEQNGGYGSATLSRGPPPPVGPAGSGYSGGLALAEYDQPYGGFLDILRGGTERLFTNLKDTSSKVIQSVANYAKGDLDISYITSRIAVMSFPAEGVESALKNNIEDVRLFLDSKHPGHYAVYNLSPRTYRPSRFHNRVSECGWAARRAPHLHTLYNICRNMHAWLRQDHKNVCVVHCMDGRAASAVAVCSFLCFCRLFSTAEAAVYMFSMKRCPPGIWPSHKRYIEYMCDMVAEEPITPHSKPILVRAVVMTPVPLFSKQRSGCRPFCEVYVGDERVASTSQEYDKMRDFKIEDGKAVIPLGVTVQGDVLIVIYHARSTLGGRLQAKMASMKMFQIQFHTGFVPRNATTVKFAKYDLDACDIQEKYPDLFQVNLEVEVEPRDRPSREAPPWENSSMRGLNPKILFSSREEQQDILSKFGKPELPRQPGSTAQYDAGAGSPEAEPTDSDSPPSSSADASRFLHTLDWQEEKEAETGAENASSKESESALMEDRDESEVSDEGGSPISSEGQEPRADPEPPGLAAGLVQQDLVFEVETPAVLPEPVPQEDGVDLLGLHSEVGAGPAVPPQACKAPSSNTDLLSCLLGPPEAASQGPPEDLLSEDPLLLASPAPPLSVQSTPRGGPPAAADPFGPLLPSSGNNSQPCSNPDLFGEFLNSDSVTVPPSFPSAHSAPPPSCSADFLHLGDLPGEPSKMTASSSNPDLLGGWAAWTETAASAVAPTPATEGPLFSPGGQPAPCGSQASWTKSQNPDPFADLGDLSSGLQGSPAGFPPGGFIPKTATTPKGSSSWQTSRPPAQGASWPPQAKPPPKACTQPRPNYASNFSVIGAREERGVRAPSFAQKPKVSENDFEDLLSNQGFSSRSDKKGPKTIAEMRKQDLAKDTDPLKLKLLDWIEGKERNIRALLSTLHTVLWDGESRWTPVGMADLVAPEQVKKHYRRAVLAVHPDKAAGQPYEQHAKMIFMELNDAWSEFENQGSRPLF
Method: as §1

TNF-α = TNF-α secretion inhibition in LPS-treated THP-1 cells (ELISA); type: cell-based; conditions: Homo sapiens, compound 0.5 μM, LPS 500 ng/ml, 24 hours, read-out: THP-1/TNF-a (% inhib)
Method: In order to evaluate the cytokine secretion inhibitory efficacy of mononuclear cells, THP-1 cells (ATCC, #TIB-202) as a human-derived monocyte cell line were cultured in RPMI-1640 (Hyclone, SH30027.01) media in which 10% fetal bovine serum (Hyclone, SH30084.03), 1% penicillin streptomycin (Welgene, LS202-02) and 50 μM 2-Mercaptoethanol (Gibco, #21985023) were contained. In the test, 1.5-2×10^5 cells/250 μl per each well were dispensed in a 48-well plate (SPL, #30048) and incubated in an incubator at 37° C. and 5% CO2 for 16 hours, and then the compounds were diluted in DMSO so that the final concentration was 0.5 μM. It was treated with Lipopolysaccharides (LPS) (sigma, #L6529) […]. After treatment with the compound, the LPS was treated so that the final concentration was 500 ng/ml, and then the cell culture fluid was collected after culturing for 24 hours, and the degrees of the cytokines IL-6 (R&D system, #D6050) and TNF-α (R&D system, #DTA00D) contained in the culture fluid were collected using each ELISA kit. After performing the experiment according to the manufacturer's instructions, the absorbance at 450 nm was measured and analyzed using a microplate reader.

T1 sequence (Q9UM73 19-1620 L1196M): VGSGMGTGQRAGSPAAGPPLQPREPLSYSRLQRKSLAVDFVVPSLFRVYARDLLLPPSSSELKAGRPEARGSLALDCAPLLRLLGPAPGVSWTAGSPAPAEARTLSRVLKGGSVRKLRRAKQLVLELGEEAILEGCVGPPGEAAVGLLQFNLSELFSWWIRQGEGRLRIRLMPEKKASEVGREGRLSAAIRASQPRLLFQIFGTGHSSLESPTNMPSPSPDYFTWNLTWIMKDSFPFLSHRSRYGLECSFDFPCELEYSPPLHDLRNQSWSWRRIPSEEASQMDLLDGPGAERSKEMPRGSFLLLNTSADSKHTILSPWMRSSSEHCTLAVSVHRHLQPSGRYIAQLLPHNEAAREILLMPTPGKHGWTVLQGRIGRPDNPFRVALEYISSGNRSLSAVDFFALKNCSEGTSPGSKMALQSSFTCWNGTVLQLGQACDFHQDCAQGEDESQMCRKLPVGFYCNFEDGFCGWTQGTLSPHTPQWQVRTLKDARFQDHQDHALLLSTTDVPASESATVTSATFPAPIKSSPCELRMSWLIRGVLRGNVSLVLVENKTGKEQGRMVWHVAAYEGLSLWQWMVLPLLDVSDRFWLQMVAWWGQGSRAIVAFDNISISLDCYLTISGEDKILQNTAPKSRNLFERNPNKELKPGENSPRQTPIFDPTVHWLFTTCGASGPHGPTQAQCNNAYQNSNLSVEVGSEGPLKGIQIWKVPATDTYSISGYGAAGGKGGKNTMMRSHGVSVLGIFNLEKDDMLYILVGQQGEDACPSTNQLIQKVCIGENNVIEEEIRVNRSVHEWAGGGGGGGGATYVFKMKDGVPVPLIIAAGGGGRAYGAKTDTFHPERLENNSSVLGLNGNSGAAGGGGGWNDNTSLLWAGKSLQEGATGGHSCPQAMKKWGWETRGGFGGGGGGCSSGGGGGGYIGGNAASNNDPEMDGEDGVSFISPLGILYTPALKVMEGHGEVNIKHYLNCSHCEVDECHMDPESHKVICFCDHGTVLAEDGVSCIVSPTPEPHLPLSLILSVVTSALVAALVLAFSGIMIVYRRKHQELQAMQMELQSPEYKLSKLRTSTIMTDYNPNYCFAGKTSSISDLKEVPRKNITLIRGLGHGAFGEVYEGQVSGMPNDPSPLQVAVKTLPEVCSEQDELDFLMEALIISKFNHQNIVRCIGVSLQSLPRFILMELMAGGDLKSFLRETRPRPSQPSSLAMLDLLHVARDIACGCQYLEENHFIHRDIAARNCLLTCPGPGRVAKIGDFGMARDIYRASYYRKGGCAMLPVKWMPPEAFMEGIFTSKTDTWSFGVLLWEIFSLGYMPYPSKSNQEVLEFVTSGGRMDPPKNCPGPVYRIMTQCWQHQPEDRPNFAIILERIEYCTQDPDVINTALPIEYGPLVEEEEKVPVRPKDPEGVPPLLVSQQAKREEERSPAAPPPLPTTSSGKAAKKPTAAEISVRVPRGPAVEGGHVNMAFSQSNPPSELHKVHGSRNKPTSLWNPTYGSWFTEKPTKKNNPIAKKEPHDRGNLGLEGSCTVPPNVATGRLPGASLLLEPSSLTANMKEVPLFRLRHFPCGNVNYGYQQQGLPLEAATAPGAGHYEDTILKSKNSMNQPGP
T2 sequence (P49760 whole entry): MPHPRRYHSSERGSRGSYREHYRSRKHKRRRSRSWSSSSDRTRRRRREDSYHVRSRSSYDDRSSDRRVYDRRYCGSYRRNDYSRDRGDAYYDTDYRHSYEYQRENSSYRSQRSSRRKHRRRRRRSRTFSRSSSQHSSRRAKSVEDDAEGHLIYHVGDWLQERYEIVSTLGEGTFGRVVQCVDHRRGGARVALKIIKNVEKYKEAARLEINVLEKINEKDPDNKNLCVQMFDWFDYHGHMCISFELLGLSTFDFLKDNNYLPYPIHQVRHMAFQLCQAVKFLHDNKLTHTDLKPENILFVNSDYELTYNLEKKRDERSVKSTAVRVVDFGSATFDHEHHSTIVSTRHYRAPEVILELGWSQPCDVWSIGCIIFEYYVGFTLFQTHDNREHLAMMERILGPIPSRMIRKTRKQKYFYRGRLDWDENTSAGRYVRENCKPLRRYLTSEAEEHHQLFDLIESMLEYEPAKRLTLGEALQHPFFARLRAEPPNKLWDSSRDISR

| SMILES | inhibition at 0.5 µM (TNF-α) [%] | further results |
| --- | --- | --- |
| CNc1cc(Nc2ccc(P3(=O)CCN(C4CC4)CC3)cc2OC)nc2[nH]cc(C(F)(F)F)c12 [Example 205, 1-cyclopropyl-4-(3-methoxy-4-((4-(methylamino)-3-(trifluoromethyl)-1H-pyrrolo[2,3-b]pyridin-6-yl)amino)phenyl)-1,4-azaphosphinane 4-oxide] | – | remaining binding at 1 µM (ALK (L1196M)): 1.6%; remaining binding at 1 µM (CLK2): 0.15%; remaining binding at 1 µM (DYRK2): 28%; remaining binding at 1 µM (GAK): 12% |
| COc1cc(S(=O)(=O)N2CCC(N3CCOCC3)CC2)ccc1Nc1cc(NCCS(C)(=O)=O)c2c(C(F)(F)F)c[nH]c2n1 [Example 194, N^6-(2-methoxy-4-((4-morpholinopiperidin-1-yl)sulfonyl)phenyl)-N^4-(2-(methylsulfonyl)ethyl)-3-(trifluoromethyl)-1H-pyrrolo[2,3-b]pyridine-4,6-diamine] | 37.6 | – |
| CCNc1cc(Nc2ccc(C(=O)N3CCN(C4COC4)CC3)c3c2OCC3)nc2[nH]cc(C(F)(F)F)c12 [Example 248, (7-((4-(ethylamino)-3-(trifluoromethyl)-1H-pyrrolo[2,3-b]pyridin-6-yl)amino)-2,3-dihydrobenzofuran-4-yl)(4-(oxetan-3-yl)piperazin-1-yl)methanone] | 9.2 | – |
| O=C(c1ccc(Nc2cc(C3CC3)c3c(C(F)(F)F)c[nH]c3n2)c2c1CCO2)N1CCOCC1 [Example 91, (7-((4-cyclopropyl-3-(trifluoromethyl)-1H-pyrrolo[2,3-b]pyridin-6-yl)amino)-2,3-dihydrobenzofuran-4-yl)(morpholino) methanone] | 9.6 | – |
| CNc1cc(Nc2ccc(C(=O)N3CC[C@@H](N4CCOCC4)C3)c3c2OCC3)nc2[nH]cc(C(F)(F)F)c12 [Example 214, (R)-(7-((4-(methylamino)-3-(trifluoromethyl)-1H-pyrrolo[2,3-b]pyridin-6-yl)amino)-2,3-dihydrobenzofuran-4-yl)(3-morpholinopyrrolidin-1-yl)methanone] | 12 | – |
| CCNc1cc(Nc2ccc(C(=O)N3CCC(N4CCOCC4)CC3)c3c2OCC3)nc2[nH]cc(C(F)(F)F)c12 [Example 90, (7-((4-(ethylamino)-3-(trifluoromethyl)-1H-pyrrolo[2,3-b]pyridin-6-yl)amino)-2,3-dihydrobenzofuran-4-yl)(4-morpholinopiperidin-1-yl)methanone] | 12.4 | – |
| CNc1cc(Nc2ccc(S(=O)(=O)N3CCC(N4C[C@H]5C[C@@H]4CO5)CC3)cc2OC)nc2[nH]cc(C(F)(F)F)c12 [Example 243, N^6-(4-((4-((1R,4R)-2-oxa-5-azabicyclo[2.2.1]heptan-5-yl)piperidin-1-yl)sulfonyl)-2-methoxyphenyl)-N^4-methyl-3-(trifluoromethyl)-1H-pyrrolo[2,3-b]pyridine-4,6-diamine] | 2.1 | – |
| CNc1cc(Nc2ccc(C(=O)N3CCC(N4CCOCC4)CC3)c3c2OCC3)nc2[nH]cc(C(F)(F)F)c12 [Example 234, (7-((4-(methylamino)-3-(trifluoromethyl)-1H-pyrrolo[2,3-b]pyridin-6-yl)amino)-2,3-dihydrobenzofuran-4-yl)(4-morpholinopiperidin-1-yl)methanone] | 12.4 | – |
| CCNc1cc(Nc2ccc(C(=O)N3CCN(C4COC4)CC3)c3c2OCCO3)nc2[nH]cc(C(F)(F)F)c12 [Example 173, (8-((4-(ethylamino)-3-(trifluoromethyl)-1H-pyrrolo[2,3-b]pyridin-6-yl)amino)-2,3-dihydrobenzo[b] [1,4]dioxin-5-yl)(4-(oxetan-3-yl)piperazin-1-yl)methanone] | 5.9 | – |
| CCNc1cc(Nc2ccc(C(=O)N3CCC(N4C[C@H]5C[C@@H]4CO5)CC3)c3c2OCC3)nc2[nH]cc(C(F)(F)F)c12 [Example 244, (4-((1R,4R)-2-oxa-5-azabicyclo[2.2.1]heptan-5-yl)piperidin-1-yl)(7-((4-(ethylamino)-3-(trifluoromethyl)-1H-pyrrolo[2,3-b]pyridin-6-yl)amino)-2,3-dihydrobenzofuran-4-yl)methanone] | 12.7 | – |
| CCNc1cc(Nc2ccc(P3(=O)CCN(C4CCOCC4)CC3)cc2OC)nc2[nH]cc(C(F)(F)F)c12 [Example 94, 4-(4-((4-(ethylamino)-3-(trifluoromethyl)-1H-pyrrolo[2,3-b]pyridin-6-yl)amino)-3-methoxyphenyl)-1-(tetrahydro-2H-pyran-4-yl)-1,4-azaphosphinane 4-oxide] | 6.6 | – |
| CNc1cc(Nc2ccc(S(=O)(=O)N3CCC(N4CCOCC4)CC3)c3c2OCCO3)nc2[nH]cc(C(F)(F)F)c12 [Example 233, N^4-methyl-N^6-(8-((4-morpholinopiperidin-1-yl)sulfonyl)-2,3-dihydrobenzo [b] [1,4]dioxin-5-yl)-3-(trifluoromethyl)-1H-pyrrolo[2,3-b]pyridine-4,6-diamine] | 12.5 | – |
| COCCNc1cc(Nc2ccc(S(=O)(=O)N3CCC(N4CCOCC4)CC3)c3c2OCCO3)nc2[nH]cc(C(F)(F)F)c12 [Example 97, N^4-(2-methoxyethyl)-N^6-(8-((4-morpholonopiperidin-1-yl)sulfonyl)-2,3-dihydrobenzo[b] [1,4]dioxin-5-yl)-3-(trifluoromethyl)-1H-pyrrolo[2,3-b]pyridine-4,6-diamine] | 5.5 | – |
